assay: recombinant barcode read abundance after kanamycin selection (control-corrected) (log10(CPM+1)); higher = more efficient recombination; sequences stand for … in AGTGCAGAGAAAATCGGCCAGTTTTCTCTGCCTGCAGTCCGCATGCCGT…AGATTTATGCAGCGGACTGCCTTTCTCCCAAAGTGATAAACCGGACAGTATCATGGACCGGTTTTCCCGGTAATCCGTATTTGCAAGGTTGGTTTCACT; site = the 11-nt target
How it was run: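 Targets were screened in pooled form in E. coli against IS621 bridge RNA target-binding loops. Recombination efficiency is based on barcode counts at recombinant junctions in counts per million, averaged and corrected for the control. Numbers are shown as log10(CPM+1), with duplicate plates on chloramphenicol/ampicillin LB agar (control) or chloramphenicol/ampicillin/kanamycin with 0.1 mM IPTG.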
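Also: IS621 recombinase and bridge RNA in Escherichia coli cells.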

Row | Sequence | recombinant barcode read abundance (log10)
1 | GTGTACCCTTGGGTTCTAACCTGTTGCGG (site GTGTACCCTAC) | 1.94
2 | GTGTACCCTTGGGTTCTAACCTGTTGCGG (site GTGTACCCTCC) | 1.93
3 | GTGTACCCTTGGGTTCTAACCTGTTGCGG (site GTGTACCCTGC) | 0.161
4 | GTGTACCCTTGGGTTCTAACCTGTTGCGG (site GTGTACCCTTC) | 0.253
5 | GTGTAGTCTTGGGTTCTAACCTGTTGCCG (site GTGTAGGCTCT) | 0.254
6 | GTGTAGTCTTGGGTTCTAACCTGTTGCCG (site GTGTAGTCTCG) | 1.19
7 | GTGTCACCTTGGGTTCTAACCTGTTGCCT (site GTGTCAACTAG) | 0.205
8 | GTGTCACCTTGGGTTCTAACCTGTTGCCT (site GTGTCACCTAG) | 1.52
9 | GTGTCACCTTGGGTTCTAACCTGTTGCCT (site GTGTCAGCTAG) | 0.00534
10 | GTGTCACCTTGGGTTCTAACCTGTTGCCT (site GTGTCATCTAG) | 0.091
11 | GTGTCTCCTTGGGTTCTAACCTGTTGCCT (site ATGTCTCCTAG) | 0.233
12 | GTGTCTCCTTGGGTTCTAACCTGTTGCCT (site CTGTCTCCTAG) | 0.103
13 | GTGTCTCCTTGGGTTCTAACCTGTTGCCT (site GTGTCTCCTAG) | 0.962
14 | GTGTCTCCTTGGGTTCTAACCTGTTGCCT (site TTGTCTCCTAG) | 0.22
15 | GTGTGAGCTTGGGTTCTAACCTGTTGCCG (site GTACGAGCTCG) | 0.269
16 | GTGTGAGCTTGGGTTCTAACCTGTTGCCG (site GTGTGAGCTCG) | 1.74
17 | GTGTGTCCTTGGGTTCTAACCTGTTGCCT (site GTGTGTACTAG) | 0.0295
18 | GTGTGTCCTTGGGTTCTAACCTGTTGCCT (site GTGTGTCCTAG) | 1.31
19 | GTGTGTCCTTGGGTTCTAACCTGTTGCCT (site GTGTGTGCTAG) | 0.155
20 | GTGTGTCCTTGGGTTCTAACCTGTTGCCT (site GTGTGTTCTAG) | 0.108
21 | GTTACCGCTTGGGTTCTAACCTGTTGCCT (site GTAACCGCTAG) | 0.602
22 | GTTACCGCTTGGGTTCTAACCTGTTGCCT (site GTCACCGCTAG) | 0.345

Row | Sequence | recombinant barcode read abundance (log10)
23 | GTTACCGCTTGGGTTCTAACCTGTTGCCT (site GTGACCGCTAG) | 0.0865
24 | GTTACCGCTTGGGTTCTAACCTGTTGCCT (site GTTACCGCTAG) | 1.64
25 | GTTACGTCTTGGGTTCTAACCTGTTGCTT (site AGTACGTCTAA) | 0.115
26 | GTTACGTCTTGGGTTCTAACCTGTTGCTT (site GTTACGTCTAA) | 0.285
27 | GTTAGACCTTGGGTTCTAACCTGTTGCCT (site GTTAGACCTAG) | 0.949
28 | GTTAGACCTTGGGTTCTAACCTGTTGCCT (site TGCCTCTCTTA) | 0.0193
29 | GTTCAGCCTTGGGTTCTAACCTGTTGCCT (site GTCGAGCCTAG) | 0.0107
30 | GTTCAGCCTTGGGTTCTAACCTGTTGCCT (site GTTCAGCCTAG) | 0.611
31 | GTTCCAGCTTGGGTTCTAACCTGTTGCCT (site AGCAGCCCTCT) | 0.0192
32 | GTTCCAGCTTGGGTTCTAACCTGTTGCCT (site GTTCCAGCTAG) | 0.792
33 | GTTCCATCTTGGGTTCTAACCTGTTGCCT (site GATCCATCTAG) | 0.172
34 | GTTCCATCTTGGGTTCTAACCTGTTGCCT (site GCTCCATCTAG) | 0.28
35 | GTTCCATCTTGGGTTCTAACCTGTTGCCT (site GGTCCATCTAG) | 0.216
36 | GTTCCATCTTGGGTTCTAACCTGTTGCCT (site GTTCCATCTAG) | 0.601
37 | GTTCCGGCTTGGGTTCTAACCTGTTGCCT (site GTTACGGCTAG) | 0.139
38 | GTTCCGGCTTGGGTTCTAACCTGTTGCCT (site GTTCCGGCTAG) | 0.834
39 | GTTCCGGCTTGGGTTCTAACCTGTTGCCT (site GTTGCGGCTAG) | 0.145
40 | GTTCCGGCTTGGGTTCTAACCTGTTGCCT (site GTTTCGGCTAG) | 0.373
41 | GTTCCTACTTGGGTTCTAACCTGTTGCCT (site GATCCTACTAG) | 0.215
42 | GTTCCTACTTGGGTTCTAACCTGTTGCCT (site GCTCCTACTAG) | 0.00954
43 | GTTCCTACTTGGGTTCTAACCTGTTGCCT (site GGTCCTACTAG) | 0.133

Reference: the supplement of paper PMC11208160
